Reference: patent US20180249707A1, “METHOD OF CONTROLLING ALGAE IN A BODY OF WATER” (priority 2013, published 2018)

Tested on: Microcystis aeruginosa
Assay: 14-day flask exposure of Microcystis aeruginosa to BADA
Type: cell-based
Method: The experiment was conducted for 14 days and was initiated using 100 mL BG-11 medium contained in 200 mL flasks. […] The experiment was initiated by exposing the algae to 0.2, 0.4, 0.8, 1.0, 1.2, 1.4, 1.8, and 2.0 ppm (mg/L) as BADA, 0.5 Cu/L Cutrine®-Plus. The solution was heated in a water bath and diluted to 70 mg/L using warmed deionized water. Cutrine®-Plus stock solution was made at 50 mg/L using deionized water. Three replicates of each exposure concentration, along with three replicates of an untreated reference were tested. Each sample was maintained at room temperature with 12-hours of light and 12-h dark photoperiod. The chlorophyll a concentrations of Microcystis aeruginosa through the 14 day exposure after exposure to concentrations of BADA and Cutrine®-Plus. The results are shown in TABLES 5, and 6, which show the chlorophyll a concentration and the cell density, respectively.

CCCCCCCCCCCCN(CCCN)CCCN [BADA, N,N-bis-(3-aminopropyl) dodecylamine]
Chlorophyll a content of M. aeruginosa compared to untreated control algae (0.2 to 2.0 ppm (mg/L), by 15 days after start, p<0.01): reduced | Cell density of M. aeruginosa cultures (BADA 0.2 ppm, day 0 (initial)): 5.7E+05 cells/mL | In vivo chlorophyll a concentrations of M. aeruginosa cultures (BADA 0.2 ppm, day 0 (initial)): 0.90 µg/L | In vivo chlorophyll a concentrations of M. aeruginosa cultures (BADA 0.2 ppm, day 3): 0.28 µg/L | Cell density of M. aeruginosa cultures (BADA 0.2 ppm, day 7): <1E+04 cells/mL | In vivo chlorophyll a concentrations of M. aeruginosa cultures (BADA 0.2 ppm, day 7): 0.06 µg/L | Cell density of M. aeruginosa cultures (BADA 0.2 ppm, day 14): <1E+04 cells/mL | In vivo chlorophyll a concentrations of M. aeruginosa cultures (BADA 0.2 ppm, day 14): 0.02 µg/L | Cell density of M. aeruginosa cultures (BADA 0.4 ppm, day 0 (initial)): 5.7E+05 cells/mL | In vivo chlorophyll a concentrations of M. aeruginosa cultures (BADA 0.4 ppm, day 0 (initial)): 0.90 µg/L | In vivo chlorophyll a concentrations of M. aeruginosa cultures (BADA 0.4 ppm, day 3): 0.23 µg/L | Cell density of M. aeruginosa cultures (BADA 0.4 ppm, day 7): <1E+04 cells/mL | In vivo chlorophyll a concentrations of M. aeruginosa cultures (BADA 0.4 ppm, day 7): 0.03 µg/L | Cell density of M. aeruginosa cultures (BADA 0.4 ppm, day 14): <1E+04 cells/mL | In vivo chlorophyll a concentrations of M. aeruginosa cultures (BADA 0.4 ppm, day 14): 0.02 µg/L | Cell density of M. aeruginosa cultures (BADA 0.8 ppm, day 0 (initial)): 5.7E+05 cells/mL | In vivo chlorophyll a concentrations of M. aeruginosa cultures (BADA 0.8 ppm, day 0 (initial)): 0.90 µg/L | In vivo chlorophyll a concentrations of M. aeruginosa cultures (BADA 0.8 ppm, day 3): 0.26 µg/L | Cell density of M. aeruginosa cultures (BADA 0.8 ppm, day 7): <1E+04 cells/mL | In vivo chlorophyll a concentrations of M. aeruginosa cultures (BADA 0.8 ppm, day 7): 0.03 µg/L | Cell density of M. aeruginosa cultures (BADA 0.8 ppm, day 14): <1E+04 cells/mL | In vivo chlorophyll a concentrations of M. aeruginosa cultures (BADA 0.8 ppm, day 14): 0.02 µg/L | Cell density of M. aeruginosa cultures (BADA 1.0 ppm, day 0 (initial)): 5.7E+05 cells/mL | In vivo chlorophyll a concentrations of M. aeruginosa cultures (BADA 1.0 ppm, day 0 (initial)): 0.90 µg/L | In vivo chlorophyll a concentrations of M. aeruginosa cultures (BADA 1.0 ppm, day 3): 0.31 µg/L | Cell density of M. aeruginosa cultures (BADA 1.0 ppm, day 7): <1E+04 cells/mL | In vivo chlorophyll a concentrations of M. aeruginosa cultures (BADA 1.0 ppm, day 7): 0.05 µg/L | Cell density of M. aeruginosa cultures (BADA 1.0 ppm, day 14): <1E+04 cells/mL | In vivo chlorophyll a concentrations of M. aeruginosa cultures (BADA 1.0 ppm, day 14): 0.02 µg/L | Cell density of M. aeruginosa cultures (BADA 1.2 ppm, day 0 (initial)): 5.7E+05 cells/mL | In vivo chlorophyll a concentrations of M. aeruginosa cultures (BADA 1.2 ppm, day 0 (initial)): 0.90 µg/L | In vivo chlorophyll a concentrations of M. aeruginosa cultures (BADA 1.2 ppm, day 3): 0.29 µg/L | Cell density of M. aeruginosa cultures (BADA 1.2 ppm, day 7): <1E+04 cells/mL | In vivo chlorophyll a concentrations of M. aeruginosa cultures (BADA 1.2 ppm, day 7): 0.04 µg/L | Cell density of M. aeruginosa cultures (BADA 1.2 ppm, day 14): <1E+04 cells/mL | In vivo chlorophyll a concentrations of M. aeruginosa cultures (BADA 1.2 ppm, day 14): 0.02 µg/L | Cell density of M. aeruginosa cultures (BADA 1.4 ppm, day 0 (initial)): 5.7E+05 cells/mL | In vivo chlorophyll a concentrations of M. aeruginosa cultures (BADA 1.4 ppm, day 0 (initial)): 0.90 µg/L | In vivo chlorophyll a concentrations of M. aeruginosa cultures (BADA 1.4 ppm, day 3): 0.29 µg/L | Cell density of M. aeruginosa cultures (BADA 1.4 ppm, day 7): <1E+04 cells/mL | In vivo chlorophyll a concentrations of M. aeruginosa cultures (BADA 1.4 ppm, day 7): 0.04 µg/L | Cell density of M. aeruginosa cultures (BADA 1.4 ppm, day 14): <1E+04 cells/mL | In vivo chlorophyll a concentrations of M. aeruginosa cultures (BADA 1.4 ppm, day 14): 0.01 µg/L | Cell density of M. aeruginosa cultures (BADA 1.8 ppm, day 0 (initial)): 5.7E+05 cells/mL | In vivo chlorophyll a concentrations of M. aeruginosa cultures (BADA 1.8 ppm, day 0 (initial)): 0.90 µg/L | In vivo chlorophyll a concentrations of M. aeruginosa cultures (BADA 1.8 ppm, day 3): 0.32 µg/L | Cell density of M. aeruginosa cultures (BADA 1.8 ppm, day 7): <1E+04 cells/mL | In vivo chlorophyll a concentrations of M. aeruginosa cultures (BADA 1.8 ppm, day 7): 0.03 µg/L | Cell density of M. aeruginosa cultures (BADA 1.8 ppm, day 14): <1E+04 cells/mL | In vivo chlorophyll a concentrations of M. aeruginosa cultures (BADA 1.8 ppm, day 14): 0.02 µg/L | Cell density of M. aeruginosa cultures (BADA 2.0 ppm, day 0 (initial)): 5.7E+05 cells/mL | In vivo chlorophyll a concentrations of M. aeruginosa cultures (BADA 2.0 ppm, day 0 (initial)): 0.90 µg/L | In vivo chlorophyll a concentrations of M. aeruginosa cultures (BADA 2.0 ppm, day 3): 0.40 µg/L | Cell density of M. aeruginosa cultures (BADA 2.0 ppm, day 7): <1E+04 cells/mL | In vivo chlorophyll a concentrations of M. aeruginosa cultures (BADA 2.0 ppm, day 7): 0.03 µg/L | Cell density of M. aeruginosa cultures (BADA 2.0 ppm, day 14): <1E+04 cells/mL | In vivo chlorophyll a concentrations of M. aeruginosa cultures (BADA 2.0 ppm, day 14): 0.01 µg/L | effectiveness as an algaecide on Microcystis aeruginosa (at concentrations comparable to Cutrine-Plus): effective
